According to US11136296B2, “Substituted N-arylethyl-2-arylquinoline-4-carboxamides and use thereof” (Bayer Aktiengesellschaft, priority 2017, dated 2021):

Target: FP receptor (Homo sapiens (Human), UniProt P43088)
Experiment: In vitro test of inhibition of human FP receptor activity (PGF2α-induced calcium flux in FP-expressing CHEM1 cells)
Format: cell-based
Conditions: PGF2α-induced (2 nM) calcium flux in FP-expressing CHEM1 cells; some as mean values from multiple determinations
From the text: Table 1 below lists the IC50 values from this assay for individual working examples of the invention (some as mean values from multiple independent individual determinations): […]

Chain of FP receptor (P43088 whole entry): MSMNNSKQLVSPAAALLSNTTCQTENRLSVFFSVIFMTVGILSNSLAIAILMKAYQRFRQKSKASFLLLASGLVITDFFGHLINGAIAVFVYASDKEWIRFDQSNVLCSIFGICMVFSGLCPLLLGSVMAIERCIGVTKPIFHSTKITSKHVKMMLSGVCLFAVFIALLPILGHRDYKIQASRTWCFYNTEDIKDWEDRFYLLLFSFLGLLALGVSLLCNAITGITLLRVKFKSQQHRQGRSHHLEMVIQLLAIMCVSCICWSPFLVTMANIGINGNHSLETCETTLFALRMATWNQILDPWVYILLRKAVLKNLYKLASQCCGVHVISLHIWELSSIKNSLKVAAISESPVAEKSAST

Row | Compound | IC50
1 | COc1ccc(F)cc1C(C)(CNC(=O)c1c(C)c(-c2ccccc2)nc2ccc(Br)cc12)CC(=O)O (single isomer, unassigned; (+)) [Example 133, (+)-4-{[(6-Bromo-3-methyl-2-phenylquinolin-4-yl)carbonyl]amino}-3-(5-fluoro-2-methoxyphenyl)-3-methylbutanoic Acid] | 47 nM
2 | COc1c(F)cc(F)cc1C(C)(CNC(=O)c1c(C)c(-c2ccccc2)nc2ccc(Br)cc12)CC(=O)O (single isomer, unassigned; (+)) [Example 136, (+)-4-{[(6-Bromo-3-methyl-2-phenylquinolin-4-yl)carbonyl]amino}-3-(3,5-difluoro-2-methoxyphenyl)-3-methylbutanoic Acid] | 13 nM
3 | COc1cc(F)ccc1C(C)(CNC(=O)c1c(C)c(-c2ccccc2)nc2ccc(Br)cc12)CC(=O)O (single isomer, unassigned; (+)) [Example 139, (+)-4-{[(6-Bromo-3-methyl-2-phenylquinolin-4-yl)carbonyl]amino}-3-(4-fluoro-2-methoxyphenyl)-3-methylbutanoic Acid] | 28 nM
4 | COc1cccc(F)c1C(C)(CNC(=O)c1c(C)c(-c2ccccc2)nc2ccc(Br)cc12)CC(=O)O (single isomer, unassigned; (+)) [Example 143, (+)-4-{[(6-Bromo-3-methyl-2-phenylquinolin-4-yl)carbonyl]amino}-3-(2-fluoro-6-methoxyphenyl)-3-methylbutanoic Acid] | 6.8 nM
5 | Cc1c(-c2ccccc2)nc2ccc(Br)cc2c1C(=O)NC(C)C(CC(=O)O)c1ccccc1Cl (single isomer, unassigned; (+)) [Example 147, (+)-4-{[(6-Bromo-3-methyl-2-phenylquinolin-4-yl)carbonyl]amino}-3-(2-chlorophenyl)pentanoic Acid] | > 1000 nM
6 | Cc1c(-c2ccccc2)nc2ccc(Br)cc2c1C(=O)NC(C)C(CC(=O)O)c1ccccc1Cl (single isomer, unassigned; (+)) [Example 150, (+)-4-{[(6-Bromo-3-methyl-2-phenylquinolin-4-yl)carbonyl]amino}-3-(2-chlorophenyl)pentanoic Acid] | 960 nM
7 | Cc1c(-c2ccccc2)nc2ccc(Br)cc2c1C(=O)NCC(C)(CCC(=O)O)c1ccccc1Cl (single isomer, unassigned; (+)) [Example 156, (+)-5-{[(6-Bromo-3-methyl-2-phenylquinolin-4-yl)carbonyl]amino}-4-(2-chlorophenyl)-4-methylpentanoic Acid] | 8 nM
8 | Cc1c(-c2ccccc2)nc2ccc(Br)cc2c1C(=O)NCC(CCC(=O)O)c1c(F)cccc1Cl (single isomer, unassigned; (+)) [Example 159, (+)-5-{[(6-Bromo-3-methyl-2-phenylquinolin-4-yl)carbonyl]amino}-4-(2-chloro-6-fluorophenyl)pentanoic Acid] | 24 nM
9 | Cc1ccccc1C(CCC(=O)O)CNC(=O)c1c(C)c(-c2ccccc2)nc2ccc(Br)cc12 (single isomer, unassigned; (+)) [Example 162, (+)-5-{[(6-Bromo-3-methyl-2-phenylquinolin-4-yl)carbonyl]amino}-4-(2-methylphenyl)pentanoic Acid] | 33 nM
10 | Cc1c(-c2ccccc2)nc2ccc(Br)cc2c1C(=O)NCC(CCC(=O)O)c1cc(F)ccc1Cl (single isomer, unassigned; (+)) [Example 165, (+)-5-{[(6-Bromo-3-methyl-2-phenylquinolin-4-yl)carbonyl]amino}-4-(2-chloro-5-fluorophenyl)pentanoic Acid] | 6.6 nM
11 | COc1ccccc1C(CCC(=O)O)CNC(=O)c1c(C)c(-c2ccccc2)nc2ccc(Br)cc12 (single isomer, unassigned; (+)) [Example 168, (+)-5-{[(6-Bromo-3-methyl-2-phenylquinolin-4-yl)carbonyl]amino}-4-(2-methoxyphenyl)pentanoic Acid] | 3.6 nM
12 | Cc1c(-c2ccccc2)nc2ccc(Br)cc2c1C(=O)NCC(C)(CCC(=O)O)c1cc(F)ccc1Cl (single isomer, unassigned; (+)) [Example 171, (+)-5-{[(6-Bromo-3-methyl-2-phenylquinolin-4-yl)carbonyl]amino}-4-(2-chloro-5-fluorophenyl)-4-methylpentanoic Acid] | 11 nM
13 | Cc1c(-c2ccccc2)nc2ccc(Br)cc2c1C(=O)NCC(CCC(=O)O)c1ccccc1F (single isomer, unassigned; (+)) [Example 177, (+)-5-{[(6-Bromo-3-methyl-2-phenylquinolin-4-yl)carbonyl]amino}-4-(2-fluorophenyl)pentanoic Acid] | 19 nM
14 | Cc1c(-c2ccccc2)nc2ccc(Br)cc2c1C(=O)NCC(CCC(=O)O)c1ccccc1OC(F)F (single isomer, unassigned; (+)) [Example 180, (+)-5-{[(6-Bromo-3-methyl-2-phenylquinolin-4-yl)carbonyl]amino}-4-[2-(difluoromethoxy)phenyl]pentanoic Acid] | 8.2 nM
15 | Cc1c(-c2ccccc2)nc2ccc(Br)cc2c1C(=O)NCC(CCC(=O)O)c1c(F)cccc1F (single isomer, unassigned; (+)) [Example 183, (+)-5-{[(6-Bromo-3-methyl-2-phenylquinolin-4-yl)carbonyl]amino}-4-(2,6-difluorophenyl)pentanoic Acid] | 23 nM
16 | Cc1c(-c2ccccc2)nc2ccc(Br)cc2c1C(=O)NCC(CCC(=O)O)c1cccc(F)c1Cl (single isomer, unassigned; (+)) [Example 186, (+)-5-{[(6-Bromo-3-methyl-2-phenylquinolin-4-yl)carbonyl]amino}-4-(2-chloro-3-fluorophenyl)pentanoic Acid] | 17 nM
17 | Cc1c(-c2ccccc2)nc2ccc(Br)cc2c1C(=O)NCC(c1ccccc1Cl)N(C)CC(=O)O (single isomer, unassigned; (+)) [Example 189, (+)-N-[2-{[(6-Bromo-3-methyl-2-phenylquinolin-4-yl)carbonyl]amino}-1-(2-chlorophenyl)ethyl]-N-methylglycine] | 62 nM
18 | Cc1c(-c2ccccc2)nc2ccc(Br)cc2c1C(=O)NCC(OCC(=O)O)c1ccccc1Cl (single isomer, unassigned; (+)) [Example 192, (+)-[2-{[(6-Bromo-3-methyl-2-phenylquinolin-4-yl)carbonyl]amino}-1-(2-chlorophenyl)ethoxy]acetic Acid] | 42 nM
19 | Cc1c(-c2ccccc2)nc2ccc(Br)cc2c1C(=O)NCC(SCC(=O)O)c1ccccc1Cl (single isomer, unassigned; (+)) [Example 195, (+)-{[2-{[(6-Bromo-3-methyl-2-phenylquinolin-4-yl)carbonyl]amino}-1-(2-chlorophenyl)ethyl]sulfanyl}acetic Acid] | 8 nM
20 | Cc1c(-c2ccccc2)nc2ccc(Br)cc2c1C(=O)NCC(CCC(=O)O)c1c(Cl)ccc(F)c1F (single isomer, unassigned; (+)) [Example 202, (+)-5-{[(6-Bromo-3-methyl-2-phenylquinolin-4-yl)carbonyl]amino}-4-(6-chloro-2,3-difluorophenyl)pentanoic Acid] | 6.2 nM
21 | Cc1c(-c2ccccc2)nc2ccc(Br)cc2c1C(=O)NCC(CCC(=O)O)c1ccccc1C(F)(F)F (single isomer, unassigned; (+)) [Example 205, (+)-5-{[(6-Bromo-3-methyl-2-phenylquinolin-4-yl)carbonyl]amino}-4-[2-(trifluoromethyl)phenyl]pentanoic Acid] | 22 nM
22 | Cc1ccc(F)cc1C(CCC(=O)O)CNC(=O)c1c(C)c(-c2ccccc2)nc2ccc(Br)cc12 (single isomer, unassigned; (+)) [Example 208, (+)-5-{[(6-Bromo-3-methyl-2-phenylquinolin-4-yl)carbonyl]amino}-4-(5-fluoro-2-methylphenyl)pentanoic Acid] | 11 nM
23 | Cc1c(-c2ccccc2)nc2ccc(Br)cc2c1C(=O)NCC(CCC(=O)O)c1ccccc1OC(F)(F)F (single isomer, unassigned; (+)) [Example 210, (+)-5-{[(6-Bromo-3-methyl-2-phenylquinolin-4-yl)carbonyl]amino}-4-[2-(trifluoromethoxy)phenyl]pentanoic Acid] | 6.1 nM
24 | O=C(O)CCC(CNC(=O)c1c(Cl)c(-c2ccccc2)nc2ccc(Br)cc12)c1ccccc1Cl (single isomer, unassigned; (+)) [Example 214, (+)-5-{[(6-Bromo-3-chloro-2-phenylquinolin-4-yl)carbonyl]amino}-4-(2-chlorophenyl)pentanoic Acid] | 4.4 nM
25 | O=C(O)CCC(CNC(=O)c1c(Cl)c(-c2ccccc2)nc2ccc(Br)cc12)c1ccccc1C(F)(F)F (single isomer, unassigned; (+)) [Example 217, (+)-5-{[(6-Bromo-3-chloro-2-phenylquinolin-4-yl)carbonyl]amino}-4-[2-(trifluoromethyl)phenyl]pentanoic Acid] | 19 nM
26 | C#Cc1ccc2nc(-c3ccccc3)c(C)c(C(=O)NCC(CCC(=O)O)c3ccccc3Cl)c2c1 (single isomer, unassigned; (+)) [Example 220, (+)-4-(2-Chlorophenyl)-5-{[(6-ethynyl-3-methyl-2-phenylquinolin-4-yl)carbonyl]amino}pentanoic Acid] | 8 nM
27 | O=C(O)CCC(CNC(=O)c1c(Cl)c(-c2ccccc2)nc2ccc(Br)cc12)c1c(F)ccc(F)c1Cl (single isomer, unassigned; (+)) [Example 223, (+)-5-{[(6-Bromo-3-chloro-2-phenylquinolin-4-yl)carbonyl]amino}-4-(2-chloro-3,6-difluorophenyl)pentanoic Acid] | 12 nM
28 | Cc1c(-c2ccccc2)nc2ccc(Br)cc2c1C(=O)NCC(CCC(=O)O)c1c(F)cccc1C(F)(F)F (single isomer, unassigned; (+)) [Example 226, (+)-5-{[(6-Bromo-3-methyl-2-phenylquinolin-4-yl)carbonyl]amino}-4-[2-fluoro-6-(trifluoromethyl)phenyl]pentanoic Acid] | 100 nM
